The results in this text go back to PubChem BioAssay (NCI).

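Five compound concentrations were applied to cells in 96-well plates for 48 hours; endpoints were derived by simple linear interpolation of the resulting dose-response curve. Here, GI50 denotes the concentration required for 50% inhibition of growth. Definition used: TGI = concentration required for complete inhibition of growth.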

The subject of the first assay is HL-60(TB) leukemia. The assay can be described thus: growth of human tumour cells (NCI), 48 h.
In the case of `CCN1C(=O)N(CC)C2C1NN=c1s/c(=C3\C(=O)N(C(C)C)c4ccccc43)c(=O)n12` (stereo not given), the GI50 was 0.24 µM and the TGI was found to be 0.63 µM.
For the compound `CCN=C1C=CC(=C(c2ccc(N(C)C)cc2)c2ccc(N(C)C)cc2)c2ccccc21`, the GI50 is 0.0434 µM and the TGI is 0.141 µM.
On to `C[C@]12CC[C@H]3[C@@H](CCC4=CC(=O)CC[C@@H]43)[C@@H]1CC[C@@H]2OC(=O)N(CCCl)N=O`, for which the GI50 was 0.28 µM and the TGI stood at 2.15 µM.
Consider `CC12CCC(=O)C=C1CCC1C2CCC2(C)C(C(=O)Cn3cnc4c(=S)nc[nH]c43)CCC12` (stereo not given), for which the TGI is greater than 100 µM.
Still for that read-out and setting: as for `Cn1c(=O)c2[nH]c(/N=N/N3CCN(CCO)CC3)nc2n(C)c1=O`, the figure is greater than 100 µM; as for `O=C(O)CS(=O)(=O)C(c1ccccc1)c1ccccc1`, greater than 100 µM.
For the compound `CC12CCC(=O)C(O1)C1C(=O)c3cc4ccccc4cc3C(=O)C12` (stereo not given), the GI50 is 19.5 µM and the TGI amounted to 48 µM.
With `CC(C)(C(=O)NN)c1ccccc1`, the TGI was greater than 100 µM.

A further assay concerns CCRF-CEM leukemia. In words: growth of human tumour cells (NCI), 48 h.
Turning to `CCN1C(=O)N(CC)C2C1NN=c1s/c(=C3\C(=O)N(C(C)C)c4ccccc43)c(=O)n12` (stereo not given), the GI50 was 0.377 µM and the TGI is greater than 100 µM.
Take `CCN=C1C=CC(=C(c2ccc(N(C)C)cc2)c2ccc(N(C)C)cc2)c2ccccc21`: the GI50 is 0.153 µM and the TGI was found to be 3.64 µM.
`CN(C)CCCNC(=O)c1cc(NC(=O)CCNS(=O)(=O)c2ccc3c(c2)C(=O)c2ccccc2C3=O)cn1C`: the GI50 is greater than 100 µM and the TGI was greater than 100 µM.
`C[C@]12CC[C@H]3[C@@H](CCC4=CC(=O)CC[C@@H]43)[C@@H]1CC[C@@H]2OC(=O)N(CCCl)N=O`: the GI50 was 1.45 µM and the TGI is greater than 35.4 µM.
In the case of `CC12CCC(=O)C=C1CCC1C2CCC2(C)C(C(=O)Cn3cnc4c(=S)nc[nH]c43)CCC12` (stereo not given), the TGI was greater than 100 µM.
On the same count and under the same terms, as for `Cn1c(=O)c2[nH]c(/N=N/N3CCN(CCO)CC3)nc2n(C)c1=O`, the figure is greater than 100 µM.
For the compound `c1ccc2nc(Cn3c[n+](Cc4ccc5ccccc5n4)c4ccccc43)ccc2c1`, the GI50 was 3.47 µM and the TGI stood at 21 µM.
With `O=C(O)CS(=O)(=O)C(c1ccccc1)c1ccccc1`, the TGI was greater than 100 µM.
For the compound `Nc1ncnc2sc(=S)c3c(c12)CCC3`, the GI50 is 27.1 µM and the TGI is 79.5 µM.
As to `CC(=O)OC1c2ccccc2CC2(OC(C)=O)c3ccccc3C12` (stereo not given), the TGI was greater than 100 µM.
As for `COc1ccc2c(c1)CCC1C2CCC2(C)C1CCC2(O)CNC(=O)CCCCC1CCSS1` (stereo not given), the GI50 was 1.59 µM and the TGI is 4.33 µM.
For `C=CCC(N[C@H](CO)C(C)C)c1cn(C(=O)OCC)c2ccccc12` (stereo not given in full), the GI50 was 22.4 µM and the TGI worked out at 70.2 µM.
In the case of `CC12CCC(=O)C(O1)C1C(=O)c3cc4ccccc4cc3C(=O)C12` (stereo not given), the GI50 is 11.4 µM and the TGI turned out to be 31 µM.
With `CC(C)(C(=O)NN)c1ccccc1`, the TGI is greater than 100 µM.

A further assay deals with RXF 393 renal. The assay can be described thus: growth of human tumour cells (NCI), 48 h.
For `CN(C)CCCNC(=O)c1cc(NC(=O)CCNS(=O)(=O)c2ccc3c(c2)C(=O)c2ccccc2C3=O)cn1C`, the GI50 is greater than 100 µM and the TGI was greater than 100 µM.
Take `CC12CCC(=O)C=C1CCC1C2CCC2(C)C(C(=O)Cn3cnc4c(=S)nc[nH]c43)CCC12` (stereo not given): the TGI turned out to be 44 µM.
In turn, `Cn1c(=O)c2[nH]c(/N=N/N3CCN(CCO)CC3)nc2n(C)c1=O` registered a TGI greater than 100 µM.
As to `c1ccc2nc(Cn3c[n+](Cc4ccc5ccccc5n4)c4ccccc43)ccc2c1`, the GI50 is 3.1 µM and the TGI was 12 µM.
For `O=C(O)CS(=O)(=O)C(c1ccccc1)c1ccccc1`, the TGI was greater than 100 µM.
With `Nc1ncnc2sc(=S)c3c(c12)CCC3`, the GI50 is 26.9 µM and the TGI was found to be 55.1 µM.
Take `CC(=O)OC1c2ccccc2CC2(OC(C)=O)c3ccccc3C12` (stereo not given): the TGI was greater than 100 µM.
On to `COc1ccc2c(c1)CCC1C2CCC2(C)C1CCC2(O)CNC(=O)CCCCC1CCSS1` (stereo not given), for which the GI50 is 11.7 µM and the TGI was determined as 44 µM.
With `C=CCC(N[C@H](CO)C(C)C)c1cn(C(=O)OCC)c2ccccc12` (stereo not given in full), the GI50 was 18.9 µM and the TGI came to 54.2 µM.
Take `CC12CCC(=O)C(O1)C1C(=O)c3cc4ccccc4cc3C(=O)C12` (stereo not given): the GI50 is 2.5 µM and the TGI stood at 14.6 µM.

In the next assay the test system is RPMI-8226 leukemia. In words: growth of human tumour cells (NCI), 48 h.
For `CCN1C(=O)N(CC)C2C1NN=c1s/c(=C3\C(=O)N(C(C)C)c4ccccc43)c(=O)n12` (stereo not given), the GI50 was 0.429 µM and the TGI is greater than 100 µM.
On to `CCN=C1C=CC(=C(c2ccc(N(C)C)cc2)c2ccc(N(C)C)cc2)c2ccccc21`, for which the GI50 is 0.0165 µM and the TGI amounted to 0.0555 µM.
Regarding `CN(C)CCCNC(=O)c1cc(NC(=O)CCNS(=O)(=O)c2ccc3c(c2)C(=O)c2ccccc2C3=O)cn1C`, the GI50 is greater than 100 µM and the TGI is greater than 100 µM.
Turning to `C[C@]12CC[C@H]3[C@@H](CCC4=CC(=O)CC[C@@H]43)[C@@H]1CC[C@@H]2OC(=O)N(CCCl)N=O`, the GI50 was 0.983 µM.
Consider `CC12CCC(=O)C=C1CCC1C2CCC2(C)C(C(=O)Cn3cnc4c(=S)nc[nH]c43)CCC12` (stereo not given), for which the TGI is greater than 100 µM.
The compound `Cn1c(=O)c2[nH]c(/N=N/N3CCN(CCO)CC3)nc2n(C)c1=O` gave a TGI greater than 100 µM.
Consider `c1ccc2nc(Cn3c[n+](Cc4ccc5ccccc5n4)c4ccccc43)ccc2c1`, for which the GI50 is 0.681 µM and the TGI came to 4.05 µM.
In turn, `O=C(O)CS(=O)(=O)C(c1ccccc1)c1ccccc1` had a TGI greater than 100 µM.
Take `Nc1ncnc2sc(=S)c3c(c12)CCC3`: the GI50 was 16.8 µM and the TGI is 55.3 µM.
For `CC(=O)OC1c2ccccc2CC2(OC(C)=O)c3ccccc3C12` (stereo not given), the TGI is greater than 100 µM.
In the case of `COc1ccc2c(c1)CCC1C2CCC2(C)C1CCC2(O)CNC(=O)CCCCC1CCSS1` (stereo not given), the GI50 is 2.43 µM and the TGI was determined as 9.48 µM.
For the compound `C=CCC(N[C@H](CO)C(C)C)c1cn(C(=O)OCC)c2ccccc12` (stereo not given in full), the GI50 is 13.3 µM and the TGI was 40.7 µM.
Take `CC(C)(C(=O)NN)c1ccccc1`: the TGI is greater than 100 µM.

For the next assay, the system named is NCI/ADR-RES ovarian. The assay can be described thus: growth of human tumour cells (NCI), 48 h.
On to `CCN1C(=O)N(CC)C2C1NN=c1s/c(=C3\C(=O)N(C(C)C)c4ccccc43)c(=O)n12` (stereo not given), for which the GI50 is 0.3 µM and the TGI was 3.14 µM.
For `CCN=C1C=CC(=C(c2ccc(N(C)C)cc2)c2ccc(N(C)C)cc2)c2ccccc21`, the GI50 is 0.636 µM and the TGI was 3.94 µM.
`CN(C)CCCNC(=O)c1cc(NC(=O)CCNS(=O)(=O)c2ccc3c(c2)C(=O)c2ccccc2C3=O)cn1C`: the GI50 was greater than 100 µM and the TGI is greater than 100 µM.
In the case of `C[C@]12CC[C@H]3[C@@H](CCC4=CC(=O)CC[C@@H]43)[C@@H]1CC[C@@H]2OC(=O)N(CCCl)N=O`, the GI50 was 2.96 µM and the TGI turned out to be 31.9 µM.
`CC12CCC(=O)C=C1CCC1C2CCC2(C)C(C(=O)Cn3cnc4c(=S)nc[nH]c43)CCC12` (stereo not given) came in with a TGI greater than 100 µM.
Still for that read-out and setting: as for `Cn1c(=O)c2[nH]c(/N=N/N3CCN(CCO)CC3)nc2n(C)c1=O`, the figure is greater than 100 µM.
Turning to `c1ccc2nc(Cn3c[n+](Cc4ccc5ccccc5n4)c4ccccc43)ccc2c1`, the GI50 is greater than 100 µM and the TGI is greater than 100 µM.
`O=C(O)CS(=O)(=O)C(c1ccccc1)c1ccccc1` showed a TGI greater than 100 µM.
Regarding `Nc1ncnc2sc(=S)c3c(c12)CCC3`, the GI50 was 30.1 µM and the TGI was greater than 100 µM.
Turning to `CC(=O)OC1c2ccccc2CC2(OC(C)=O)c3ccccc3C12` (stereo not given), the TGI was greater than 100 µM.
In the case of `COc1ccc2c(c1)CCC1C2CCC2(C)C1CCC2(O)CNC(=O)CCCCC1CCSS1` (stereo not given), the GI50 was 7.28 µM and the TGI is greater than 100 µM.
Take `C=CCC(N[C@H](CO)C(C)C)c1cn(C(=O)OCC)c2ccccc12` (stereo not given in full): the GI50 was 21.8 µM and the TGI turned out to be 61 µM.
For the compound `CC12CCC(=O)C(O1)C1C(=O)c3cc4ccccc4cc3C(=O)C12` (stereo not given), the GI50 was 21.3 µM and the TGI was 57.2 µM.
`CC(C)(C(=O)NN)c1ccccc1` had a TGI greater than 100 µM.

Another assay concerns IGROV1 ovarian. In words: growth of human tumour cells (NCI), 48 h.
For `CCN1C(=O)N(CC)C2C1NN=c1s/c(=C3\C(=O)N(C(C)C)c4ccccc43)c(=O)n12` (stereo not given), the GI50 is 0.586 µM and the TGI is greater than 100 µM.
Regarding `CCN=C1C=CC(=C(c2ccc(N(C)C)cc2)c2ccc(N(C)C)cc2)c2ccccc21`, the GI50 is 0.0701 µM and the TGI was found to be 0.711 µM.
As to `CN(C)CCCNC(=O)c1cc(NC(=O)CCNS(=O)(=O)c2ccc3c(c2)C(=O)c2ccccc2C3=O)cn1C`, the GI50 was greater than 100 µM and the TGI is greater than 100 µM.
